According to the NIST ThermoML archive (doi:10.1021/je500116z):
Numbers after ± are expanded uncertainties.

Details: Liquid, Ebulliometric method (Recirculating still)

Row | Structure (SMILES) | vapor or sublimation pressure (288.15 K) [kPa] | vapor or sublimation pressure (298.15 K) [kPa] | vapor or sublimation pressure (308.15 K) [kPa]
1 | CC(C)CCl [1-chloro-2-methylpropane] | 13 ± 0.097 | 20.35 ± 0.13 | 30.45 ± 0.17
2 | CC(C)(C)Cl [2-chloro-2-methylpropane] | 26.42 ± 0.16 | 40.13 ± 0.22 | 59.52 ± 0.3
3 | CCC(C)Cl (configuration not stated) [2-chlorobutane] | 13.36 ± 0.099 | 20.91 ± 0.13 | 31.55 ± 0.18
4 | CCCCCC [hexane] | 12.89 ± 0.097 | 20.22 ± 0.13 | 30.7 ± 0.17
